Test results taken from ChEMBL document CHEMBL1201862, “PubChem BioAssay data set” (2004).
Activity calls are given as the source filed them.

What was measured:
[1] = target: T1, Small ubiquitin-related modifier 1 (Homo sapiens, UniProt P63165); assay: SUMO1 protein-protein binding blockers, potency – biochemical, FRET, dose response (AID 624383); format: functional; conditions: read-out: IC50_Mean
[2] = target: Induced myeloid leukemia cell differentiation protein Mcl-1 (Homo sapiens, UniProt Q07820); format: functional
Chain of Induced myeloid leukemia cell differentiation protein Mcl-1 (Q07820 whole entry): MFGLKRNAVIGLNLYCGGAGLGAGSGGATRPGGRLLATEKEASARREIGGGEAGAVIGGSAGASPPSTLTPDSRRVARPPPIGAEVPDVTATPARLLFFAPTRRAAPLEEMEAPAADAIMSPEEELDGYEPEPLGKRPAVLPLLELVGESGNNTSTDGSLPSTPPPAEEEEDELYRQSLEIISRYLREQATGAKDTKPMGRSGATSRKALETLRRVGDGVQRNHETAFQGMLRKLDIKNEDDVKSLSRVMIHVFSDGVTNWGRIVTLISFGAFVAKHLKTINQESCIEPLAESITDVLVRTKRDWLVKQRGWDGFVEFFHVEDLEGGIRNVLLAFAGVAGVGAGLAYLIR

NS3 = NS3 (Hepatitis C virus, UniProt A3EZJ3); assay: PubChem AID 2173; design: species or system Hepacivirus hominis
Chain of NS3 (A3EZJ3 whole entry): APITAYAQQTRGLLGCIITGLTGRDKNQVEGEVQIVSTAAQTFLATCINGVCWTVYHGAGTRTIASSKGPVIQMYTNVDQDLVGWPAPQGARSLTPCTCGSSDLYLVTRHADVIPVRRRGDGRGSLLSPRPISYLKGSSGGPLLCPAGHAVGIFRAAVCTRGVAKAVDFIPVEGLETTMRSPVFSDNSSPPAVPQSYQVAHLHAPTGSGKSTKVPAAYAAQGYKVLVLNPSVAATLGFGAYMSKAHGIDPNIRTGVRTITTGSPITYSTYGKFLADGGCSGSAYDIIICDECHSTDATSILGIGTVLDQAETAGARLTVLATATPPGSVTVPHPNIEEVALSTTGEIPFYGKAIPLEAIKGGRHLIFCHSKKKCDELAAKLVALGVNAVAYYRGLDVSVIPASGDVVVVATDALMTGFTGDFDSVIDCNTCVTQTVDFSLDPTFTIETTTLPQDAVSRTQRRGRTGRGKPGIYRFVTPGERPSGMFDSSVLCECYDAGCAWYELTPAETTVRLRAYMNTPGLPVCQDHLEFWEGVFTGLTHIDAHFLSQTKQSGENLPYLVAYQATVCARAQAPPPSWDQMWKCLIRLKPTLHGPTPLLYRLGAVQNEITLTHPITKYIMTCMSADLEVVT

Albumin = Albumin (Bos taurus, UniProt P02769); assay: Counterscreen for inhibitors of T-cell receptor (TCR)-CD3 interaction: Fluorescence-based biochemical high throughput dose response assay to identify inhibitors of T-cell receptor (TCR)-CD3 interaction using a TAMRA-labeled BSA probe.; format: functional
Chain of Albumin (P02769 whole entry): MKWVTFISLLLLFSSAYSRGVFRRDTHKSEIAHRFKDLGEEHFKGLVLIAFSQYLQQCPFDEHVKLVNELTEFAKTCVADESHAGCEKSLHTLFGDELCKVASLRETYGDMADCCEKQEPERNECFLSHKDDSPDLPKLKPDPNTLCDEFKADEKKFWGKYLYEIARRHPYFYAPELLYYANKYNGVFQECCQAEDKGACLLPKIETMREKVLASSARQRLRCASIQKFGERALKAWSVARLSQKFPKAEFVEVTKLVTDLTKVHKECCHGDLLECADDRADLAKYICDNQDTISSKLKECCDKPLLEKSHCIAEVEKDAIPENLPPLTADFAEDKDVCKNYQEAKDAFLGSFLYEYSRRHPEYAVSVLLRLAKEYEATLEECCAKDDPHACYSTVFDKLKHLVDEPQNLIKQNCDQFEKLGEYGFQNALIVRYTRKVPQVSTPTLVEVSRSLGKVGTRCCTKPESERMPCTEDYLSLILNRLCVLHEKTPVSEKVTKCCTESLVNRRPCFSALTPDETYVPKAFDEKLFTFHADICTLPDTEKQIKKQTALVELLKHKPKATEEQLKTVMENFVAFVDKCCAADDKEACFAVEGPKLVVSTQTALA

[3] = target: T1, Small ubiquitin-related modifier 1; assay: SUMO1 protein interaction blockers, potency – biochemical, fluorescence polarization, uHTS hits, dose response (AID 624382); format: functional; conditions: read-out: IC50_Mean
[4] = target: DNA (cytosine-5)-methyltransferase 1 (Homo sapiens, UniProt P26358); assay: inhibition of DNA methylation by DNMT1 – biochemical, fluorescent molecular beacon, confirmation (AID 602386); format: functional
Chain of DNA (cytosine-5)-methyltransferase 1 (P26358 whole entry): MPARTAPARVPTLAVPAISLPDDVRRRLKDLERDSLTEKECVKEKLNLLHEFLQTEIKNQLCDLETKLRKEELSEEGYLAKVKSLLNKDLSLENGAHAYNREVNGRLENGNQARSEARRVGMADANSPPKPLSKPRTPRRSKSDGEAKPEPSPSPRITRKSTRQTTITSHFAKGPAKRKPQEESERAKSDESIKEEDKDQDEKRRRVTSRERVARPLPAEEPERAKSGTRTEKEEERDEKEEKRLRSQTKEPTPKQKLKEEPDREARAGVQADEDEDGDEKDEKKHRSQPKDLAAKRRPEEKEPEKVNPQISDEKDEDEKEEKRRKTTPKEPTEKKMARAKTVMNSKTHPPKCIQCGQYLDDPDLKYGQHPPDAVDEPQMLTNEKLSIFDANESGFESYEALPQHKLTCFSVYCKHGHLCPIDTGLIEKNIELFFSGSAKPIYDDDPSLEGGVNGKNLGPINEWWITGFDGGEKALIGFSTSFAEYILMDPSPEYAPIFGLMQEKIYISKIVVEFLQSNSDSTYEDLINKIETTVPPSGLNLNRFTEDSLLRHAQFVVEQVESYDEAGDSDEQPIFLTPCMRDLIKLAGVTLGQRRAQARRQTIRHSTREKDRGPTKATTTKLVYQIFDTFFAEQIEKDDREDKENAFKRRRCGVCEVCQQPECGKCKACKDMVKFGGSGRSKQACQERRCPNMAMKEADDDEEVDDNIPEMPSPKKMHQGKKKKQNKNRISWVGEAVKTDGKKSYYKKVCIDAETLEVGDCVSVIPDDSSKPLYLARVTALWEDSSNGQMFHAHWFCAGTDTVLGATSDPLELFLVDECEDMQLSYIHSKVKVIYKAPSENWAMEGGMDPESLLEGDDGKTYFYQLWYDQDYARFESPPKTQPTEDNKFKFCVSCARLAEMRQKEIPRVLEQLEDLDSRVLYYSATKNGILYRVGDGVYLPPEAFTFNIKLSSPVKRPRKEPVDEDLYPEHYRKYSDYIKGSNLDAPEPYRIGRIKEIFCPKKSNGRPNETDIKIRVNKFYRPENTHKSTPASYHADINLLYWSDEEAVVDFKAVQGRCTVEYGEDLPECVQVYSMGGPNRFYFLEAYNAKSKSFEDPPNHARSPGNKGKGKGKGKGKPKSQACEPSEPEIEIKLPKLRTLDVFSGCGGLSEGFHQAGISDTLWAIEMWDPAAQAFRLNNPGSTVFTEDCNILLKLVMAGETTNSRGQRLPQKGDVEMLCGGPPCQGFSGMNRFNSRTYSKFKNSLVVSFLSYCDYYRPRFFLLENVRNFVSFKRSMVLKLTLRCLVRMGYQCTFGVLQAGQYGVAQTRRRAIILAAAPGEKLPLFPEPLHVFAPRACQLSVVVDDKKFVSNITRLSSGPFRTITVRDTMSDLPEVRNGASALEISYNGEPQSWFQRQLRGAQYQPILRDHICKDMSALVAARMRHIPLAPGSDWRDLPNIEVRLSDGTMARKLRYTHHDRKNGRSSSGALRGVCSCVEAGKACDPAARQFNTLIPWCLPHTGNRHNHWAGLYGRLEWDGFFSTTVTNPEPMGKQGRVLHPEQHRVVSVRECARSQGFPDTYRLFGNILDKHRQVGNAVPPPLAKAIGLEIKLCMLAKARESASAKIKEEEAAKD

[5] = target: T2, Corticotropin-releasing factor receptor 2/Corticotropin-releasing factor-binding protein (Homo sapiens, UniProt P24387+Q13324); assay: activators of CRF receptor 2 with binding protein – uHTS hits, confirmation (AID 602473); format: functional; conditions: read-out: EC50_Mean
T2 sequence (Q13324 whole entry): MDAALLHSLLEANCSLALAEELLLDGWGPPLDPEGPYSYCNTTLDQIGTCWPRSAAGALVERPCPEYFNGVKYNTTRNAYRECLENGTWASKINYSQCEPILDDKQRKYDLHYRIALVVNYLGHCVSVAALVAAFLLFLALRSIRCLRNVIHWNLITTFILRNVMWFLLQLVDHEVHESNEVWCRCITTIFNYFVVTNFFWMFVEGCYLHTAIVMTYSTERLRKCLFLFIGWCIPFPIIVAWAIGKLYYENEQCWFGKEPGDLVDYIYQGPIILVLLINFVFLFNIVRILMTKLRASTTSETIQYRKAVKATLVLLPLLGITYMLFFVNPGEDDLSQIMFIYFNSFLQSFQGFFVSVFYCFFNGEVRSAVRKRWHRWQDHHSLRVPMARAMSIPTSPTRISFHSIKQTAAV
T2 sequence (P24387 whole entry): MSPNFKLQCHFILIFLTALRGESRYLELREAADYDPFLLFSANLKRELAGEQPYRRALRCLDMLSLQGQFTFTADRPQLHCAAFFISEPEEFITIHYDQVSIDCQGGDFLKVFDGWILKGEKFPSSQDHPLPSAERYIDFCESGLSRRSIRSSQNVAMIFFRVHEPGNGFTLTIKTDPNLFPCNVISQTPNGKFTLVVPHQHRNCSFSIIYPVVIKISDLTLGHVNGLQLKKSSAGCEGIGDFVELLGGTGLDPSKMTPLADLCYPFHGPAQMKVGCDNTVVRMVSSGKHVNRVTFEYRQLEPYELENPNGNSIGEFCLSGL

[6] = target: T3, Heat shock factor protein 1 (Mus musculus, UniProt P38532); assay: enhancement of HSF1-driven luciferase signal – cell-based, NIH3T3, luminescence, dose retest, confirmation (AID 435004); format: functional;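 further: stress induced by proteasome inhibitor MG132 added 30 min after compound; luciferase reporter driven by HSF1 response element in NIH3T3 cells; actives raise luminescence as potentiators of the MG132 stress response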
T3 sequence (P38532 whole entry): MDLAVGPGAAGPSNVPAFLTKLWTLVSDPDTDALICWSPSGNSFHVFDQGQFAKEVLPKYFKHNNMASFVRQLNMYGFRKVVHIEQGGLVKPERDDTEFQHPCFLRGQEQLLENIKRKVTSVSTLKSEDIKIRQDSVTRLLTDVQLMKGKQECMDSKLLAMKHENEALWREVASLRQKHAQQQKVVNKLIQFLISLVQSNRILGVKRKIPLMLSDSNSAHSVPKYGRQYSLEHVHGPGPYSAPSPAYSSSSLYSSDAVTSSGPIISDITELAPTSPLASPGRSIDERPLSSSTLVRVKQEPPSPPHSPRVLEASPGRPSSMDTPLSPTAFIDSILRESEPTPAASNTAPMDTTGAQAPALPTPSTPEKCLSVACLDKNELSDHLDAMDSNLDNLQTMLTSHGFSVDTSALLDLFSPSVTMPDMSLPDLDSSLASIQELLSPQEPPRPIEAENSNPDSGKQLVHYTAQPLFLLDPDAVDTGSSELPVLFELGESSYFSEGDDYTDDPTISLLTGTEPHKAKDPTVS

Hexokinase HKDC1 = target: T4, Hexokinase HKDC1 (Homo sapiens, UniProt Q2TB90); assay: inhibition of HKDC1 glucose phosphorylation – biochemical, W721R variant, dose response (AID 504729); format: functional
T4 sequence (Q2TB90 whole entry): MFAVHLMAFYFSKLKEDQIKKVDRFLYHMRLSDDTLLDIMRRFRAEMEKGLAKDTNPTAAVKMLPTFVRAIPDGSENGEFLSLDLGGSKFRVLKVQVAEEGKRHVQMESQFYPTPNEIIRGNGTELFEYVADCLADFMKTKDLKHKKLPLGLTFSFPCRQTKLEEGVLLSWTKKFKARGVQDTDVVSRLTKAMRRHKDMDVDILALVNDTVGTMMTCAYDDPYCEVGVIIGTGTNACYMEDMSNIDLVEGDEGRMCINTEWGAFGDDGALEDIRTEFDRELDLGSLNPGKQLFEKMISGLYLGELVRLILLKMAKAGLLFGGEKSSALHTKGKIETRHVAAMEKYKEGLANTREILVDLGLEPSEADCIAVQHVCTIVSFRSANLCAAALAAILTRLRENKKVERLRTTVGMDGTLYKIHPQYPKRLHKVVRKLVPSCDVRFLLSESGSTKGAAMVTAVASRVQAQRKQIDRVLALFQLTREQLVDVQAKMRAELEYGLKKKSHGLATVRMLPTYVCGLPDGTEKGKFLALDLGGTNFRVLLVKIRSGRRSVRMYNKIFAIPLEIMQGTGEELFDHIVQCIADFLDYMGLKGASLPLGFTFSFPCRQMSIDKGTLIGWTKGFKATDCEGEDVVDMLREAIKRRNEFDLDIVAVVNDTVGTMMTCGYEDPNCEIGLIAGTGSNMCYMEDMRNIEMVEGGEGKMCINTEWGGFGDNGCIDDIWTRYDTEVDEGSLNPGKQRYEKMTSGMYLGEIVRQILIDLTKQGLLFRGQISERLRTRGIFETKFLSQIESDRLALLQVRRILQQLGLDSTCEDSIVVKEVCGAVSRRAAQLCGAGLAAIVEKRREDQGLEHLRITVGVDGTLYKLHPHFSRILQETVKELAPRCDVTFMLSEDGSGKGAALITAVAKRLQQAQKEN

Paired box protein Pax-8 = Paired box protein Pax-8 (Homo sapiens, UniProt Q06710); assay: PAX8 transcriptional activity inhibition in RMG-I – RMG-I cells, luciferase, cherry-pick, dose response (AID 687027); format: functional, cell-based;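 further: luciferase reporter driven by Pax8 target thyroperoxidase promoter measured by SteadyGlo luminescence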
Chain of Paired box protein Pax-8 (Q06710 whole entry): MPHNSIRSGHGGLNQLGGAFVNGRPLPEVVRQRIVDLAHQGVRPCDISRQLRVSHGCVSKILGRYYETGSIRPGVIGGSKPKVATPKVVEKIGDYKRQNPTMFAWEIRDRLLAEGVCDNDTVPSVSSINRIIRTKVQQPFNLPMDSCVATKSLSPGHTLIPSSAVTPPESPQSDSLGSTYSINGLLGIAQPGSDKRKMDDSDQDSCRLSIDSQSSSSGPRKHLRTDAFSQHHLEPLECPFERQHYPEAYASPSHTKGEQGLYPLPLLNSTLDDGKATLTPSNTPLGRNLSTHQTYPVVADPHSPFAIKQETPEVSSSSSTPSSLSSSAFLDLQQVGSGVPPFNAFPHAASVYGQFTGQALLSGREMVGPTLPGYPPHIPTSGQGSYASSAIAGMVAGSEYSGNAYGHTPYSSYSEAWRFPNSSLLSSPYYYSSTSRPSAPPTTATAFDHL

[7] = NIH3T3 cell viability loss – ATP luminescence, mouse fibroblasts, counter-screen, dose response (AID 2010); format: functional, cell-based;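 further: cells exposed to compound for about 90 hours before reading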
[8] = target: Sphingosine 1-phosphate receptor 4 (Homo sapiens, UniProt O95977); assay: Fluorescence dose response cell-based high throughput screening assay for antagonists of the Sphingosine 1-Phosphate Receptor 4 (S1P4). [Related pubchem assays: 1524 (Confirmation in triplicates.), 1510 (Primary screen.)]; format: functional
Chain of Sphingosine 1-phosphate receptor 4 (O95977 whole entry): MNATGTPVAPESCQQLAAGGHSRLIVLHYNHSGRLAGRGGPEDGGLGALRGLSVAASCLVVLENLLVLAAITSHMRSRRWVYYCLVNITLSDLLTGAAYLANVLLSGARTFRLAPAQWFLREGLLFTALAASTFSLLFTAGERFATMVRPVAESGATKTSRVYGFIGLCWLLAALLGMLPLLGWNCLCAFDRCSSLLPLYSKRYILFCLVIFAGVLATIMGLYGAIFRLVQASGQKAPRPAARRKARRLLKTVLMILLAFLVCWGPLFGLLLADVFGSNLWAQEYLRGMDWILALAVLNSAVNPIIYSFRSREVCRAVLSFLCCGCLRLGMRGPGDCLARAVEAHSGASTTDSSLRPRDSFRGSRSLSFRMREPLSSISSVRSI

[9] = blockers of bursicon-stimulated LGR2 cAMP reporter – cell-based, HEK293, CRE-luciferase reporter, cherry pick, set 2, dose response (AID 743343); format: functional;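 further: transfected cells were stimulated with diluted bursicon conditioned medium after compound addition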
[10] = A549 cell cytotoxicity, dose response, cytotoxicity control, plate reader, cherry-pick, antagonist series (AID 743412); format: functional, cell-based
[11] = target: T5, Microphthalmia-associated transcription factor (Homo sapiens, UniProt O75030); assay: reducers of TRPM1 reporter luminescence, concentration series – cell-based, SK-MEL-5, cherry-picked, set 3, MITF inhibitor project, dose response (AID 493073); format: functional;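 further: SK-MEL-5 melanoma cells with luciferase driven by the MITF target TRPM1 promoter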
T5 sequence (O75030 whole entry): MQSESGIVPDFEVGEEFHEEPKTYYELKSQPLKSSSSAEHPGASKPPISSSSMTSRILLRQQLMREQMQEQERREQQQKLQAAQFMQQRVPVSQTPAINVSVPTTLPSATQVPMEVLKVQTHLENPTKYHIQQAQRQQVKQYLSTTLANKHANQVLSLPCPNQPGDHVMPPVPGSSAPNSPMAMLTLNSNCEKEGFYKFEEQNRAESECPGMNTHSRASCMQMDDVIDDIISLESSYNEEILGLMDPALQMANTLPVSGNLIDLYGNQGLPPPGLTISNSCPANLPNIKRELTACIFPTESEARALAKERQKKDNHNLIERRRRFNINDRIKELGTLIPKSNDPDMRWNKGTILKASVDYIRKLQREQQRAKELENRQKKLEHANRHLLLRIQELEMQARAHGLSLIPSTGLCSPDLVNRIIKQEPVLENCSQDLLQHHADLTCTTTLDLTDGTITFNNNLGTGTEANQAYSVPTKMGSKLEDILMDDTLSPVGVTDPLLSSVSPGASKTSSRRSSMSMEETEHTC

[12] = blockade of melanocortin 4 receptor signaling – cell-based, plate reader, cherry pick, counter-screen for LGR2 antagonist project, dose response (AID 743444); format: functional;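 further: transfected HEK 293 cells stimulated with alpha-MSH peptide; potency of inhibitors of the alpha-MSH evoked signal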
[13] = reduced cellular PGC1a acetyl-lysine signal – cell-based, cherry-picked samples, dose response (AID 720514); format: functional;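 further: potency may reflect raised or lowered acetylation signal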
[14] = toxicity toward HepG2 liver cells – cell-based, plate reader, cherry-pick, antagonist series, cytotoxicity control, dose response (AID 743416); format: functional
[15] = target: Sphingosine 1-phosphate receptor 1 (Homo sapiens, UniProt P21453); format: functional;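 further: Tango beta-arrestin reporter U2OS cells stimulated with S1P near its EC80; inhibitor potency meaning antagonism of receptor activation by the natural agonist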
Chain of Sphingosine 1-phosphate receptor 1 (P21453 whole entry): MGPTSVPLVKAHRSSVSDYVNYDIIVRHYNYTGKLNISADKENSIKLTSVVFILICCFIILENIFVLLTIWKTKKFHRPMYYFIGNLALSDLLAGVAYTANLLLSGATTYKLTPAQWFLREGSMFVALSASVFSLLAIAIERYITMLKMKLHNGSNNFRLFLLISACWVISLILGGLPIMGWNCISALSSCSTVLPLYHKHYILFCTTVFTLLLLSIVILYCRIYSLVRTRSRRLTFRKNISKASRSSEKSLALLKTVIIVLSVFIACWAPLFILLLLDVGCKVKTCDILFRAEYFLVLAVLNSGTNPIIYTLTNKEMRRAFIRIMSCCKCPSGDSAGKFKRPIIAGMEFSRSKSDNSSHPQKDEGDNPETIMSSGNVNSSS

[16] = Trypanosoma cruzi growth suppression in host cells – NIH3T3 host cells, beta-gal luminescence, confirmation (AID 2044); format: functional, cell-based;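 further: intracellular parasites grown in NIH/3T3 mouse fibroblasts as host cells; luminescent beta-galactosidase reporter signal from transgenic T. cruzi replicating inside host cells; inhibitors lower the luminescence signal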
[17] = viability loss in HEK293 cells – cell-based, plate reader, cherry-picked samples, cytotoxicity control, dose response (AID 743446); format: functional

T1 sequence (P63165 whole entry): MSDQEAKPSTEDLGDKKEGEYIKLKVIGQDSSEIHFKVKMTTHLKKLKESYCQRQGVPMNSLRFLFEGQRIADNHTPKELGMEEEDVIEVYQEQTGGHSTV

For O=C(O)c1ccccc1/C=N/NC(=O)c1cc(-c2ccco2)nc2ccccc12, the IC50 [1] was 9.51 µM (active), the IC50 [2] was 2.54 µM (active) and the IC50 (NS3) was 7.35 µM (active). The IC50 (Albumin) was > 94.1 µM (inactive), the IC50 [3] was > 66.6 µM (inactive) and the IC50 [4] was 5.4 µM (active).

For Cc1cccc(N2C(=O)C(O)=C(C(=O)c3cccs3)C2c2ccc(C(C)C)cc2)n1 (configuration not stated), the IC50 (NS3) was 5.88 µM (active), the EC50 [5] was 11.3 µM (active) and the EC50 [6] was > 260 µM (inactive).

With O=C(CSc1nnc(CCCN2C(=O)c3cccc4cccc(c34)C2=O)n1-c1ccccc1)N1CCN(CCO)CC1 the IC50 (Hexokinase HKDC1) was 9.27 µM (active).

In the case of O=C1CN(C(=O)Cn2ncc(Cl)c(Cl)c2=O)c2ccccc2N1, the AC50 (Paired box protein Pax-8) is reported as 2.19 µM (active), the EC50 [7] is reported as 2.61 µM (active) and the IC50 [8] is reported as 3.18 µM (active). For the same molecule, the AC50 [9] was 18.7 µM (active), the AC50 [10] was 11.8 µM (active) and the AC50 [11] was 8.67 µM (active). The AC50 [12] was 15.4 µM (active), the AC50 [13] was 4.16 µM (active) and the AC50 [14] was 25.6 µM (active). For the same molecule, the IC50 [15] was 13.6 µM (not active), the EC50 [16] was 2.11 µM (active) and the AC50 [17] was 8.59 µM (active).
